Results taken from ChEMBL document CHEMBL4414595, “Tripterfordins A-O, Dihydro-β-agarofuran Sesquiterpenoids from the Leaves of Tripterygium wilfordii” (J Nat Prod, 2019).

tested on: RAW264.7; assay: Anti-inflammatory activity in mouse RAW264.7 cells assessed as inhibition of LPS-induced NO production by Griess assay; type: functional, cell-based

`CC(=O)OC[C@]12[C@H](OC(C)=O)[C@@H](OC(C)=O)[C@@H]3[C@@H](O)[C@]1(OC3(C)C)[C@@](C)(O)C[C@H](OC(C)=O)[C@@H]2OC(=O)/C=C\c1ccccc1` and `CC(=O)OC[C@]12[C@H](OC(C)=O)[C@@H](OC(C)=O)[C@@H]3[C@@H](O)[C@]1(OC3(C)C)[C@@](C)(O)C[C@H](OC(C)=O)[C@@H]2OC(=O)/C=C/c1ccccc1` are within 1.5-fold of each other in IC50: 31 µM for the first, 24.2 µM for the second.

`CC(=O)OC[C@]12[C@H](OC(C)=O)C(=O)[C@@H]3C[C@]1(OC3(C)C)[C@@](C)(O)C[C@H](OC(C)=O)[C@@H]2OC(=O)/C=C/c1ccccc1` and `CC(=O)OC[C@]12[C@H](OC(C)=O)C(=O)[C@@H]3[C@@H](O)[C@]1(OC3(C)C)[C@@](C)(O)C[C@H](OC(C)=O)[C@@H]2OC(=O)/C=C/c1ccccc1` cannot be ordered by IC50: > 100 µM for the first, > 100 µM for the second.

Going from `CC(=O)OC[C@]12[C@H](OC(C)=O)[C@@H](OC(C)=O)[C@@H]3[C@@H](OC(C)=O)[C@]1(OC3(C)C)[C@@](C)(O)C[C@H](OC(C)=O)[C@@H]2OC(=O)/C=C\c1ccccc1` to `CC(=O)OC[C@]12[C@H](OC(C)=O)[C@@H](OC(C)=O)[C@@H]3C[C@]1(OC3(C)C)[C@@](C)(O)C[C@H](OC(C)=O)[C@@H]2OC(=O)/C=C\c1ccccc1`, the IC50 falls from > 100 µM to 19.1 µM.

Going from `CC(=O)OC[C@]12[C@H](OC(C)=O)[C@@H](OC(C)=O)[C@@H]3[C@@H](O)[C@]1(OC3(C)C)[C@H](C)[C@@H](O)[C@H](OC(C)=O)[C@@H]2OC(=O)/C=C/c1ccccc1` to `CC(=O)OC[C@]12[C@H](OC(C)=O)[C@@H](OC(C)=O)[C@@H]3[C@@H](O)[C@]1(OC3(C)C)[C@H](C)C[C@H](OC(C)=O)[C@@H]2OC(=O)/C=C/c1ccccc1`, the IC50 falls from > 100 µM to 11.9 µM.

Compared with `CC(=O)OC[C@]12[C@H](OC(C)=O)[C@@H](O)[C@@H]3[C@@H](O)[C@]1(OC3(C)C)[C@@](C)(O)C[C@H](O)[C@@H]2OC(=O)/C=C/c1ccccc1`, `CC(=O)OC[C@]12[C@H](OC(C)=O)[C@@H](OC(C)=O)[C@@H]3[C@@H](O)[C@]1(OC3(C)C)[C@@](C)(O)[C@@H](O)[C@H](OC(C)=O)[C@@H]2OC(=O)/C=C/c1ccccc1` is lower in IC50: > 100 µM for the first, 53.7 µM for the second.

`CC(=O)OC[C@]12[C@H](OC(C)=O)[C@@H](OC(C)=O)[C@@H]3C[C@]1(OC3(C)C)[C@@](C)(O)C[C@H](OC(C)=O)[C@@H]2OC(=O)/C=C/c1ccccc1` and `CC(=O)OC[C@]12[C@H](OC(C)=O)[C@@H](OC(C)=O)[C@@H]3C[C@]1(OC3(C)C)[C@H](C)C[C@H](OC(C)=O)[C@@H]2OC(=O)/C=C\c1ccccc1` cannot be ordered by IC50: > 100 µM for the first, > 100 µM for the second.

Compared with `CC(=O)OC[C@]12[C@H](OC(C)=O)[C@@H](OC(C)=O)[C@@H]3C[C@]1(OC3(C)C)[C@H](C)C[C@H](OC(C)=O)[C@@H]2OC(=O)/C=C/c1ccccc1`, `CC(=O)OC[C@]12[C@H](OC(C)=O)[C@@H](OC(C)=O)[C@@H]3[C@@H](O)[C@]1(OC3(C)C)[C@H](C)C[C@H](OC(C)=O)[C@@H]2OC(=O)/C=C\c1ccccc1` is lower in IC50: > 100 µM for the first, 28.2 µM for the second.

Going from `CC(=O)O[C@H]1C[C@@H](C)[C@]23OC(C)(C)[C@H]([C@H](O)[C@@H](OC(=O)c4ccccc4)[C@]2(CO)[C@H]1OC(=O)/C=C/c1ccccc1)[C@H]3OC(C)=O` to `C[C@]12CCC(=O)C=C1CC[C@@H]1[C@@H]2[C@@H](O)C[C@@]2(C)[C@H]1CC[C@]2(O)C(=O)COC(=O)CCC(=O)O` [HYDROCORTISONE SODIUM SUCCINATE], the IC50 falls from > 100 µM to 42.4 µM.
